According to ChEMBL document CHEMBL1201862, “PubChem BioAssay data set” (2004):
Several values for one entry are separate records, joined by “and”; a condition that tells them apart may be missing. Equal values may be shown once.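 All cell lines were grown in 96-well plates and treated with compound for 48 hours. At the GI50, growth is halved.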 Activity calls are given as the source filed them. Rule as the data show it: active = GI50 up to about 1.1 µM and inactive = higher.

What was measured:
Assay in all cases: NCI anticancer screen, dose series, 48 h
MDA-N = system: MDA-N
TK-10 = system: TK-10
HT-29 = system: HT-29
SN12C = system: SN12C
CAKI-1 = system: CAKI-1
DU-145 = system: DU-145
HCT-116 = system: HCT-116
HCT-15 = system: HCT-15
SF-295 = system: SF-295
SK-OV-3 = system: SK-OV-3
NCI/ADR-RES = system: NCI/ADR-RES
A549 = system: A549
Hs-578T = system: Hs-578T
NCI-H23 = system: NCI-H23
KM12 = system: KM12
PC-3 = system: PC-3
LOX IMVI = system: LOX IMVI
SF-268 = system: SF-268
SK-MEL-2 = system: SK-MEL-2
CCRF-CEM = system: CCRF-CEM

Structure (SMILES)	GI50 (MDA-N)	GI50 (TK-10)	GI50 (HT-29)	GI50 (SN12C)	GI50 (CAKI-1)	GI50 (DU-145)	GI50 (HCT-116)	GI50 (HCT-15) [µM]	GI50 (SF-295)	GI50 (SK-OV-3)	GI50 (NCI/ADR-RES)	GI50 (A549)	GI50 (Hs-578T)	GI50 (NCI-H23)	GI50 (KM12)	GI50 (PC-3)	GI50 (LOX IMVI)	GI50 (SF-268)	GI50 (SK-MEL-2)	GI50 (CCRF-CEM)
Oc1ccc(NCc2cc(O)ccc2O)cc1	3.17 µM (inactive)	16 µM (inactive)	22.6 µM (inactive)	15.3 µM (inactive)	16 µM (inactive)	18.5 µM (inactive)	15.3 µM (inactive)	15.6	20.7 µM (inactive)	17.8 µM (inactive)	18.4 µM (inactive)	53.1 µM (inactive)	40.9 µM (inactive)	18.1 µM (inactive)	21.7 µM (inactive)	14.9 µM (inactive)	17.1 µM (inactive)	17.2 µM (inactive)	18.2 µM (inactive)	
O=C1/C(=C\c2cccc(Oc3ccccc3)c2)S(=O)(=O)C(c2ccccc2)N1Cc1ccccc1 (stereo not drawn)	29.6 µM (inactive)	33.6 µM (inactive)		26.6 µM (inactive)	26.6 µM (inactive)	33 µM (inactive)	31 µM (inactive)	15.6	55.8 µM (inactive)	> 100 µM (inactive)	19.4 µM (inactive)	49.2 µM (inactive)	13.6 µM (inactive)	28 µM (inactive)	23.1 µM (inactive)	24.7 µM (inactive)	25.1 µM (inactive)		16.3 µM (inactive)	24.5 µM (inactive)
Cc1ccc(SC2C(=O)C3CC(OCc4ccccc4)C2(C)C3(C)C)cc1 (stereo not drawn)	> 100 µM (inactive)	> 100 µM (inactive)	41.9 µM (inactive)	> 100 µM (inactive)		> 100 µM (inactive)	9.66 µM (inactive)	29.1	> 100 µM (inactive)	> 100 µM (inactive)	> 100 µM (inactive)	> 100 µM (inactive)	> 100 µM (inactive)	46.8 µM (inactive)	> 100 µM (inactive)	12.4 µM (inactive)		> 100 µM (inactive)	38.7 µM (inactive)	73.8 µM (inactive)
COC(CNC(=O)C(C)NC(=O)/C=C/c1ccccc1)OC (stereo not drawn)	> 100 µM (inactive)	> 100 µM (inactive)	> 100 µM (inactive)	> 100 µM (inactive)	> 100 µM (inactive)	> 100 µM (inactive)	> 100 µM (inactive)	> 100	> 100 µM (inactive)	> 100 µM (inactive)	> 100 µM (inactive)	> 100 µM (inactive)	> 100 µM (inactive)	> 100 µM (inactive)	> 100 µM (inactive)	> 100 µM (inactive)		> 100 µM (inactive)	> 100 µM (inactive)	> 100 µM (inactive)
O=C(O)c1cccc(S(=O)(=O)NN2C(=O)CSC2c2ccccc2)c1 (stereo not drawn)	74.6 µM (inactive)	> 100 µM (inactive)	> 100 µM (inactive)	> 100 µM (inactive)	> 100 µM (inactive)	> 100 µM (inactive)	> 100 µM (inactive)	> 100	> 100 µM (inactive)	> 100 µM (inactive)		> 100 µM (inactive)	> 100 µM (inactive)	> 100 µM (inactive)	> 100 µM (inactive)	> 100 µM (inactive)	> 100 µM (inactive)	> 100 µM (inactive)	> 100 µM (inactive)	> 100 µM (inactive)
NC1=NN(c2ccccc2)C2(O)c3ccncc3C3=NN(c4ccccc4)C(=O)C132 (stereo not drawn)	> 100 µM (inactive)		> 100 µM (inactive)	> 100 µM (inactive)	> 100 µM (inactive)	> 100 µM (inactive)	> 100 µM (inactive)	> 100	> 100 µM (inactive)	> 100 µM (inactive)	> 100 µM (inactive)	> 100 µM (inactive)	> 100 µM (inactive)	> 100 µM (inactive)	> 100 µM (inactive)	> 100 µM (inactive)	> 100 µM (inactive)	> 100 µM (inactive)	> 100 µM (inactive)	> 10 µM (inactive)
CC(=O)OCC1OC(SC2=NC(=O)CS2)C(OC(C)=O)C(OC(C)=O)C1OC(C)=O (stereo not drawn)	> 100 µM (inactive)	53.7 µM (inactive)	> 100 µM (inactive)	> 100 µM (inactive)	68.7 µM (inactive)	> 100 µM (inactive)			> 100 µM (inactive)	> 100 µM (inactive)	> 100 µM (inactive)	> 100 µM (inactive)	> 100 µM (inactive)	> 100 µM (inactive)	> 100 µM (inactive)	84.1 µM (inactive) and 95.5 µM (inactive)	> 100 µM (inactive)	> 100 µM (inactive)		31.5 µM (inactive) and 32.3 µM (inactive)
N#C[C@@]12CCCC(=O)[C@@H]1[C@H]1CCC[C@H]12	18.8 µM (inactive)	19.9 µM (inactive)	19.7 µM (inactive)	16.4 µM (inactive)	16.3 µM (inactive)	14.9 µM (inactive)	15.5 µM (inactive)	16.3	24.7 µM (inactive)	14.7 µM (inactive)	22.5 µM (inactive)	16.7 µM (inactive)	31.3 µM (inactive)	16.1 µM (inactive)	13.3 µM (inactive)	13.9 µM (inactive)	14.4 µM (inactive)		16.9 µM (inactive)	16.6 µM (inactive)
Cc1ccc(/N=N/C(=N/NC(=O)c2cc(Cl)ccc2O)c2ccc(N(CCC#N)CCC#N)cc2C)cc1	30.6 µM (inactive)	21.2 µM (inactive)	14.6 µM (inactive)	28.4 µM (inactive)	41.4 µM (inactive)	26.9 µM (inactive)	19 µM (inactive)	32.1	21.3 µM (inactive)	32.9 µM (inactive)	38.4 µM (inactive)	28.6 µM (inactive)	9.95 µM (inactive)	18.6 µM (inactive)	18.1 µM (inactive)	24.3 µM (inactive)		25.1 µM (inactive)	15.7 µM (inactive)	26 µM (inactive)
CNC(=O)C1CCCN1C(=O)C(Cc1c[nH]cn1)NC(=O)C1CCC(=O)N1 (stereo not drawn)	> 100 µM (inactive)	> 100 µM (inactive)	> 100 µM (inactive)	> 100 µM (inactive)	> 100 µM (inactive)	> 100 µM (inactive)	> 100 µM (inactive)	> 100	> 100 µM (inactive)	> 100 µM (inactive)	> 100 µM (inactive)	> 100 µM (inactive)	> 100 µM (inactive)	> 100 µM (inactive)	> 100 µM (inactive)	> 100 µM (inactive)	> 100 µM (inactive)	> 100 µM (inactive)		> 100 µM (inactive)
CN(C)c1c(C2CC(O)C(CO)O2)c(=O)c1=O (stereo not drawn)	> 100 µM (inactive)	> 100 µM (inactive)	> 100 µM (inactive)	> 100 µM (inactive)		> 100 µM (inactive)	> 100 µM (inactive)	> 100	> 100 µM (inactive)	> 100 µM (inactive)	> 100 µM (inactive)	> 100 µM (inactive)	> 100 µM (inactive)		> 100 µM (inactive)	> 100 µM (inactive)	> 100 µM (inactive)	> 100 µM (inactive)	> 100 µM (inactive)	
CC(=O)OC1[C@H](OC(C)=O)C2=C(C)[C@@H](OC(C)=O)C[C@@]2(C(C)(C)O)[C@@H](OC(C)=O)[C@H]2[C@@]1(C)[C@@H](OC(C)=O)CC(OC(C)=O)[C@]21CO1 (stereo partly drawn)	> 100 µM (inactive)	> 100 µM (inactive)	> 100 µM (inactive)	> 100 µM (inactive)	> 100 µM (inactive)	> 100 µM (inactive)	> 100 µM (inactive)	> 100	> 100 µM (inactive)	> 100 µM (inactive)		> 100 µM (inactive)	> 100 µM (inactive)	> 100 µM (inactive)	> 100 µM (inactive)	> 100 µM (inactive)	> 100 µM (inactive)	> 100 µM (inactive)	> 100 µM (inactive)	> 100 µM (inactive)
COc1cccc(-c2cc(O)c3cc(C)cnc3n2)c1	0.0106 µM (active)		0.0318 µM (active)	0.0538 µM (active)	0.0389 µM (active)	0.308 µM (active)	0.0323 µM (active)	0.251	0.0405 µM (active)	0.283 µM (active)	0.0295 µM (active)	0.0776 µM (active)	0.0495 µM (active)	0.203 µM (active)	0.0885 µM (active)	0.0467 µM (active)	0.0512 µM (active)	0.594 µM (active)	0.0293 µM (active)	0.0366 µM (active)
Nc1ccc(-c2nc3ccccc3s2)cc1F	37.2 µM (inactive)		29.2 µM (inactive)	27.7 µM (inactive)	19.5 µM (inactive)	30.2 µM (inactive)	15.5 µM (inactive)	33.2	25.8 µM (inactive)	38.5 µM (inactive)	28.8 µM (inactive)	21.3 µM (inactive)	29.1 µM (inactive)	52.1 µM (inactive)	28.5 µM (inactive)	21.4 µM (inactive)	44.7 µM (inactive)	34 µM (inactive)	19.2 µM (inactive)	5.47 µM (inactive)
CC(C)(C)NCC(O)COc1cccc2[nH]c(C#N)cc12 (stereo not drawn) [CYANOPINDOLOL]	> 100 µM (inactive)	84.5 µM (inactive)	> 100 µM (inactive)	> 100 µM (inactive)	> 100 µM (inactive)	> 100 µM (inactive)	> 100 µM (inactive)	> 100	> 100 µM (inactive)	> 100 µM (inactive)	> 100 µM (inactive)	> 100 µM (inactive)	> 100 µM (inactive)	> 100 µM (inactive)	> 100 µM (inactive)	> 100 µM (inactive)		> 100 µM (inactive)	> 100 µM (inactive)	
